Test results reported in PubChem BioAssay AID1963873 (Molecular Pharmacology Branch, DTP, NCI, 2024).

Tested on: 276233-004-R-J1-PDC KRAS spheroids with HUVEC/MSC, viability
Assay: Anticancer human tumor 276233-004-R-J1-PDC patient-derived colon adenocarcinoma cell line growth inhibition [KRAS2]
Details: for viability, T/C: stronger effect = lower value
Procedure, shortened: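 KRAS-mutant tumor cells were grown as spheroids with HUVEC endothelial cells and human MSCs as stroma. Targeted agents were tested alone and with KRAS pathway inhibitors. Doses started at or near clinical Cmax, or 10 microM, descending half-log.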

[1] = curve of first compound, second compound 0.1 µM
[2] = curve of first compound, second compound 0.316 µM
[3] = curve of first compound, second compound 1 µM
[4] = curve of first compound, second compound 3.16 µM
[5] = curve of first compound, second compound 10 µM
[6] = second compound 0.1 µM, first compound 0.0316 µM
[7] = second compound 0.1 µM, first compound 0.1 µM
[8] = second compound 0.1 µM, first compound 0.316 µM
[9] = second compound 0.1 µM, first compound 1 µM
[10] = second compound 0.1 µM, first compound 3.16 µM
[11] = second compound 0.1 µM, first compound 10 µM
[12] = second compound 0.316 µM, first compound 0.0316 µM
[13] = second compound 0.316 µM, first compound 0.1 µM
[14] = second compound 0.316 µM, first compound 0.316 µM
[15] = second compound 0.316 µM, first compound 1 µM
[16] = second compound 0.316 µM, first compound 3.16 µM
[17] = second compound 0.316 µM, first compound 10 µM
[18] = second compound 1 µM, first compound 0.0316 µM
[19] = second compound 1 µM, first compound 0.1 µM
[20] = second compound 1 µM, first compound 0.316 µM
[21] = second compound 1 µM, first compound 1 µM
[22] = second compound 1 µM, first compound 3.16 µM
[23] = second compound 1 µM, first compound 10 µM
[24] = second compound 3.16 µM, first compound 0.0316 µM
[25] = second compound 3.16 µM, first compound 0.1 µM
[26] = second compound 3.16 µM, first compound 0.316 µM
[27] = second compound 3.16 µM, first compound 1 µM
[28] = second compound 3.16 µM, first compound 3.16 µM
[29] = second compound 3.16 µM, first compound 10 µM
[30] = second compound 10 µM, first compound 0.0316 µM
[31] = second compound 10 µM, first compound 0.1 µM
[32] = second compound 10 µM, first compound 0.316 µM
[33] = second compound 10 µM, first compound 1 µM
[34] = second compound 10 µM, first compound 3.16 µM
[35] = second compound 10 µM, first compound 10 µM
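Further: cells exposed to agents for seven days before viability read.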
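Wherever viability, T/C is given: 100% = DMSO vehicle control wells and lower values mean fewer viable cells.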

`O=C(c1cc(Cc2n[nH]c(=O)c3ccccc23)ccc1F)N1CCN(C(=O)C2CC2)CC1` + CC1OCC2(CCN(c3cnc(Sc4ccnc(N)c4Cl)c(N)n3)CC2)C1N showed an IC50 [1] of over 10 µM, an IC50 [2] of over 10 µM and an IC50 [3] of over 10 µM. For the same compound, the IC50 [4] was 0.233 µM, the IC50 [5] was 0.0707 µM and the viability, T/C [6] was 75.3%. For the same compound, the viability, T/C [7] was 84.9%, the viability, T/C [8] was 85.4% and the viability, T/C [9] was 81.8%. For the same compound, the viability, T/C [10] was 79.4%, the viability, T/C [11] was 62.5% and the viability, T/C [12] was 76.6%. For the same compound, the viability, T/C [13] was 78.5%, the viability, T/C [14] was 65.7% and the viability, T/C [15] was 71.7%. The viability, T/C [16] was 64.9%, the viability, T/C [17] was 65% and the viability, T/C [18] was 95.6%. The viability, T/C [19] was 67.9%, the viability, T/C [20] was 59.4% and the viability, T/C [21] was 54.2%. The viability, T/C [22] was 51%, the viability, T/C [23] was 52.9% and the viability, T/C [24] was 54.4%. The viability, T/C [25] was 52.8%, the viability, T/C [26] was 45.1% and the viability, T/C [27] was 50.6%. It also gave a viability, T/C [28] of 44.4%, a viability, T/C [29] of 43.3% and a viability, T/C [30] of 55.9%. It also gave a viability, T/C [31] of 47.1%, a viability, T/C [32] of 41.4% and a viability, T/C [33] of 42.7%. For the same compound, the viability, T/C [34] was 37.5% and the viability, T/C [35] was 36.6%.

With `Cn1nccc1Nc1nccc(-c2cc3c(s2)C(C)(C)N(CCN2CCOCC2)C3=O)n1` + COc1cc2nc(C)nc(NC(C)c3cc(N)cc(C(F)(F)F)c3)c2cc1OC1CCOC1 the IC50 [1] was 1.72 µM, the IC50 [2] was 2.01 µM and the IC50 [3] was 1.85 µM. It also gave an IC50 [4] of 2.72 µM, an IC50 [5] of under 0.0316 µM and a viability, T/C [6] of 87.1%. The viability, T/C [7] was 97.3%, the viability, T/C [8] was 76.2% and the viability, T/C [9] was 59.4%. For the same compound, the viability, T/C [10] was 40.8%, the viability, T/C [11] was 33.8% and the viability, T/C [12] was 89.2%. The viability, T/C [13] was 91.4%, the viability, T/C [14] was 79.3% and the viability, T/C [15] was 60%. The viability, T/C [16] was 42.9%, the viability, T/C [17] was 41% and the viability, T/C [18] was 99.7%. For the same compound, the viability, T/C [19] was 96%, the viability, T/C [20] was 75.5% and the viability, T/C [21] was 60.5%. It also gave a viability, T/C [22] of 35.9%, a viability, T/C [23] of 48.4% and a viability, T/C [24] of 107%. The viability, T/C [25] was 74%, the viability, T/C [26] was 77.9% and the viability, T/C [27] was 56.1%. For the same compound, the viability, T/C [28] was 42.4%, the viability, T/C [29] was 47.2% and the viability, T/C [30] was 39.3%. For the same compound, the viability, T/C [31] was 41.3%, the viability, T/C [32] was 34.7% and the viability, T/C [33] was 27.6%. It also gave a viability, T/C [34] of 15.2% and a viability, T/C [35] of 4.25%.

For `CC(C)n1nc(-c2ccc3oc(N)nc3c2)c2c(N)ncnc21`, the viability, T/C (compound 0.000316 µM) was 98.1% [middle of 5 runs], the viability, T/C (compound 0.001 µM) was 86.1% [middle of 5 runs] and the viability, T/C (compound 0.01 µM) was 66.5% [middle of 5 runs]. The viability, T/C (compound 0.0316 µM) was 60.8% [middle of 5 runs], the viability, T/C (compound 0.1 µM) was 59.6% [middle of 5 runs] and the IC50 (curve of compound) was over 0.1 µM.

For `CCN1CCN(Cc2ccc(Nc3ncc(F)c(-c4cc(F)c5nc(C)n(C(C)C)c5c4)n3)nc2)CC1` + CC1OCC2(CCN(c3cnc(Sc4ccnc(N)c4Cl)c(N)n3)CC2)C1N, the IC50 [1] was over 1 µM, the IC50 [2] was over 1 µM and the IC50 [3] was over 1 µM. The IC50 [4] was over 1 µM, the IC50 [5] was over 1 µM and the viability, T/C (second compound 0.1 µM, first compound 0.00316 µM) was 89.9%. It also gave a viability, T/C (second compound 0.1 µM, first compound 0.01 µM) of 99.2%, a viability, T/C [6] of 87% and a viability, T/C [7] of 76.5%. For the same compound, the viability, T/C [8] was 93.5%, the viability, T/C [9] was 111% and the viability, T/C (second compound 0.316 µM, first compound 0.00316 µM) was 81.3%. For the same compound, the viability, T/C (second compound 0.316 µM, first compound 0.01 µM) was 89.6%, the viability, T/C [12] was 80.7% and the viability, T/C [13] was 85.6%. For the same compound, the viability, T/C [14] was 104%, the viability, T/C [15] was 99.5% and the viability, T/C (second compound 1 µM, first compound 0.00316 µM) was 83.7%. It also gave a viability, T/C (second compound 1 µM, first compound 0.01 µM) of 86%, a viability, T/C [18] of 69.3% and a viability, T/C [19] of 72.3%. For the same compound, the viability, T/C [20] was 93.4%, the viability, T/C [21] was 67% and the viability, T/C (second compound 3.16 µM, first compound 0.00316 µM) was 74.5%. The viability, T/C (second compound 3.16 µM, first compound 0.01 µM) was 66.5%, the viability, T/C [24] was 68.8% and the viability, T/C [25] was 62.8%. The viability, T/C [26] was 54.7%, the viability, T/C [27] was 70% and the viability, T/C (second compound 10 µM, first compound 0.00316 µM) was 51.2%. For the same compound, the viability, T/C (second compound 10 µM, first compound 0.01 µM) was 71%, the viability, T/C [30] was 58.7% and the viability, T/C [31] was 53.6%. For the same compound, the viability, T/C [32] was 64.6% and the viability, T/C [33] was 63%.

Work on `COC(=O)c1ccc2c(C(=Nc3ccc(N(C)C(=O)CN4CCN(C)CC4)cc3)c3ccccc3)c(O)[nH]c2c1` + CC1OCC2(CCN(c3cnc(Sc4ccnc(N)c4Cl)c(N)n3)CC2)C1N yielded an IC50 [1] of over 10 µM, an IC50 [2] of over 10 µM and an IC50 [3] of 1.18 µM. It also gave an IC50 [4] of 0.0332 µM, an IC50 [5] of under 0.0316 µM and a viability, T/C [6] of 87.3%. For the same compound, the viability, T/C [7] was 73.7%, the viability, T/C [8] was 68.5% and the viability, T/C [9] was 64.6%. For the same compound, the viability, T/C [10] was 65.6%, the viability, T/C [11] was 56.2% and the viability, T/C [12] was 80%. It also gave a viability, T/C [13] of 63.8%, a viability, T/C [14] of 59.2% and a viability, T/C [15] of 64.7%. For the same compound, the viability, T/C [16] was 46.1%, the viability, T/C [17] was 70.7% and the viability, T/C [18] was 67.8%. For the same compound, the viability, T/C [19] was 61.1%, the viability, T/C [20] was 54.3% and the viability, T/C [21] was 55.1%. For the same compound, the viability, T/C [22] was 42.3%, the viability, T/C [23] was 42.1% and the viability, T/C [24] was 49.8%. The viability, T/C [25] was 47.6%, the viability, T/C [26] was 40.6% and the viability, T/C [27] was 41.1%. For the same compound, the viability, T/C [28] was 40%, the viability, T/C [29] was 37.3% and the viability, T/C [30] was 44.9%. It also gave a viability, T/C [31] of 49.5%, a viability, T/C [32] of 42.6% and a viability, T/C [33] of 48%. For the same compound, the viability, T/C [34] was 36.3% and the viability, T/C [35] was 37.9%.

In the case of `CC(=O)Nc1cccc(-n2c(=O)n(C3CC3)c(=O)c3c(Nc4ccc(I)cc4F)n(C)c(=O)c(C)c32)c1`, the viability, T/C (compound 0.0001 µM) is reported as 95.5% [middle of 5 runs], the viability, T/C (compound 0.000316 µM) is reported as 85.5% [middle of 5 runs] and the viability, T/C (compound 0.00316 µM) is reported as 68.5% [middle of 5 runs]. For the same compound, the viability, T/C (compound 0.01 µM) was 54.7% [middle of 5 runs], the viability, T/C (compound 0.0316 µM) was 21.5% [middle of 5 runs] and the IC50 (curve of compound) was 9.31 nM [middle of 5 runs].

`COc1cc2nccc(Oc3ccc(NC(=O)C4(C(=O)Nc5ccc(F)cc5)CC4)cc3)c2cc1OC` + C=CC(=O)N1CCN(c2nc(=O)n(-c3c(C)ccnc3C(C)C)c3nc(-c4c(O)cccc4F)c(F)cc23)C(C)C1 gave an IC50 [1] of over 10 µM, an IC50 [2] of over 10 µM and an IC50 [3] of over 10 µM. For the same compound, the IC50 [4] was over 10 µM, the IC50 [5] was over 10 µM and the viability, T/C [6] was 93.5%. The viability, T/C [7] was 109%, the viability, T/C [8] was 96% and the viability, T/C [9] was 84.7%. For the same compound, the viability, T/C [10] was 101%, the viability, T/C [11] was 104% and the viability, T/C [12] was 97.4%. It also gave a viability, T/C [13] of 112%, a viability, T/C [14] of 83.7% and a viability, T/C [15] of 91.3%. The viability, T/C [16] was 87.4%, the viability, T/C [17] was 76.3% and the viability, T/C [18] was 89.1%. The viability, T/C [19] was 91.2%, the viability, T/C [20] was 84.9% and the viability, T/C [21] was 72.1%. For the same compound, the viability, T/C [22] was 74.5%, the viability, T/C [23] was 75.1% and the viability, T/C [24] was 85.5%. The viability, T/C [25] was 79.8%, the viability, T/C [26] was 102% and the viability, T/C [27] was 76.7%. It also gave a viability, T/C [28] of 72.4%, a viability, T/C [29] of 114% and a viability, T/C [30] of 82.3%. For the same compound, the viability, T/C [31] was 74.9%, the viability, T/C [32] was 69.1% and the viability, T/C [33] was 81.8%. The viability, T/C [34] was 88.5% and the viability, T/C [35] was 76%.
